Assays:
[1] = target: Homeodomain-interacting protein kinase 2 (Homo sapiens, UniProt Q9H2X6); assay: Inhibition of HIPK2 (unknown origin) using Ser/Thr 09 as substrate incubated for 60 mins in presence of ATP by Z'-Lyte assay
[2] = target: Casein kinase II subunit alpha (Homo sapiens, UniProt P68400); assay: Inhibition of CSNK2A1(unknown origin) using Ser/Thr 11 as substrate incubated for 60 mins in presence of ATP by Z'-LYTE assay
Casein kinase II subunit alpha, sequence (P68400 whole entry): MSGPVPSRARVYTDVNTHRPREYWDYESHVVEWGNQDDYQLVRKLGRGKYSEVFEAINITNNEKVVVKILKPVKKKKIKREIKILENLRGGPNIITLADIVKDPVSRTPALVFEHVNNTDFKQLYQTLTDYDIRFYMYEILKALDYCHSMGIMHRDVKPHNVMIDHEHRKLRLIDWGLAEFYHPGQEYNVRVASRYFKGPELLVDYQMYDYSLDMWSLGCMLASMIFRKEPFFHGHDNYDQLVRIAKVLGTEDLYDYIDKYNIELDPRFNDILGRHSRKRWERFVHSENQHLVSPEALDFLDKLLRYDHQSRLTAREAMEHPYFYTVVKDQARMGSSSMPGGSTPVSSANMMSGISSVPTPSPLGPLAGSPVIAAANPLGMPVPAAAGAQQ

Homeodomain-interacting protein kinase 2, sequence (Q9H2X6 whole entry): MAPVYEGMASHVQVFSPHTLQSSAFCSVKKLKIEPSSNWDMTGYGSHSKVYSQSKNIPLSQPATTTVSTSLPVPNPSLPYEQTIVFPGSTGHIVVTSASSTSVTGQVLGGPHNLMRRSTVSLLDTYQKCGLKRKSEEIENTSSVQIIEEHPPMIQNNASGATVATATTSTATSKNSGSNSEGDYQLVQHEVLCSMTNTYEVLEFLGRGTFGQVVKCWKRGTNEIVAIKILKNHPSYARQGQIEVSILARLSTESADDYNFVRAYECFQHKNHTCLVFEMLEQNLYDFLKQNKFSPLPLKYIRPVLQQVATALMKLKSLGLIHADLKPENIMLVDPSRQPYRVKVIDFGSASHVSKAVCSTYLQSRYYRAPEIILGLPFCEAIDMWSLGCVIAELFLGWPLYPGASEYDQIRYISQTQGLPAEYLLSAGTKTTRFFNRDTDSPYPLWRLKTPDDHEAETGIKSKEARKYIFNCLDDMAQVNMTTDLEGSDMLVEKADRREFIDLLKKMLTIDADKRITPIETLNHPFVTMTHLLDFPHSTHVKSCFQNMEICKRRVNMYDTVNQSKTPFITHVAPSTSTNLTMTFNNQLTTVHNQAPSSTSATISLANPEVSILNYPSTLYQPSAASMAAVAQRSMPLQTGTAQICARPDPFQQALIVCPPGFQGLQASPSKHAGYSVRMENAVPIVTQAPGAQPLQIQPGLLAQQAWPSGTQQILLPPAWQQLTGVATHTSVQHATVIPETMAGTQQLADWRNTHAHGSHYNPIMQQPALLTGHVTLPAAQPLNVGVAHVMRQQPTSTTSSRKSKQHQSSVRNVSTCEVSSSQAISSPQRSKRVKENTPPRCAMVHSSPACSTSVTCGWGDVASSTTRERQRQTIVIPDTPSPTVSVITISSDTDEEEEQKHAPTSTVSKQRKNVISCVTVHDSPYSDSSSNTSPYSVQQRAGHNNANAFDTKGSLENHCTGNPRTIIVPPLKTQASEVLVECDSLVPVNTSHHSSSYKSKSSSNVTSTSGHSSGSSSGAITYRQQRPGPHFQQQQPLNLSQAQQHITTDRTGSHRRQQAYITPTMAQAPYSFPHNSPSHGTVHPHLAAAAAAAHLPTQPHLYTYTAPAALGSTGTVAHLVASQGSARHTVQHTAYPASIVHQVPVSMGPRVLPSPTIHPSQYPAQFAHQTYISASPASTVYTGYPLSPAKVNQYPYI

IC50 [1] [nM] | IC50 [2] [nM] | SMILES
– | < 300 | Cc1cc2cc(C(=O)O)ccc2c2cnccc12
< 300 | – | Nc1nccc2cc(Br)c3cc(C(=O)O)ccc3c12
– | < 300 | O=C(O)c1ccc2c(c1)cc(Br)c1ccnc(Cl)c12
– | < 300 | N#Cc1cc2cc(C(=O)O)ccc2c2cnccc12
– | < 300 | O=C(O)c1ccc2c(c1)cc(Cl)c1ccncc12
< 300 | < 300 | O=C(O)c1ccc2c(c1)cc(Br)c1ccncc12

More lines, now with the values behind:

SMILES | IC50 [1] [nM] | IC50 [2] [nM]
O=C(O)c1ccc2c(c1)cc(NC1CC1)c1ccncc12 | < 300 | < 300
O=C(O)c1ccc2c(c1)cc(N1CCCCC1)c1ccncc12 | – | < 300
O=C(O)c1ccc2c(c1)cc([N+](=O)[O-])c1ccncc12 | – | < 300
O=C(O)c1ccc2c(ccc3ccncc32)c1 | – | < 300
N[C@@H]1CCCN(c2cc3cc(C(=O)O)ccc3c3cnccc23)C1 | > 5000 | < 300
O=C(O)c1ccc2c(c1)cc(NC1CCCC1)c1ccncc12 | – | < 300
O=C(O)c1ccc2c(c1)cc(-c1cccnc1)c1ccncc12 | – | < 300
CC[C@@H](C)Nc1cc2cc(C(=O)O)ccc2c2cnccc12 | < 300 | < 300

Reference: ChEMBL document CHEMBL4806958, “Anti-cancer/anti-fibrosis compounds” (2020)
